Laboratory results taken from ChEMBL document CHEMBL2434921, “New synthetic aliphatic sulfonamido-quaternary ammonium salts as anticancer chemotherapeutic agents” (2013).
Activity calls are given as the source filed them. The rule behind the calls is not given here.

Assays:
[1] = system: HCT-15; test: Growth of human HCT15 cells at 0.3 uM after 48 hrs by SRB assay; conditions: HCT-15, 48 h
[2] = system: NUGC-3; test: Growth of human NUGC3 cells at 0.3 uM after 48 hrs by SRB assay; conditions: NUGC-3, 48 h
[3] = system: ACHN; test: Growth of human ACHN cells at 0.3 uM after 48 hrs by SRB assay
[4] = system: ACHN; test: Growth inhibition of human ACHN cells at 3 uM after 48 hrs by SRB assay; values are per cent of control
[5] = system: ACHN; test: Growth of human ACHN cells at 0.1 uM after 48 hrs by SRB assay
[6] = system: HCT-15; test: Growth of human HCT15 cells at 3 uM after 48 hrs by SRB assay; conditions: HCT-15, 48 h
[7] = system: PC-3; test: Growth inhibition of human PC3 cells after 48 hrs by SRB assay; assay type: functional; conditions: PC-3, 48 h
[8] = system: NCI-H23; test: Growth of human NCI-H23 cells at 10 uM after 48 hrs by SRB assay; conditions: NCI-H23, 48 h
[9] = system: MDA-MB-231; test: Growth inhibition of human MDA-MB-231 cells at 0.3 uM after 48 hrs by SRB assay; values are per cent of control; conditions: MDA-MB-231, 48 h
[10] = system: ACHN; test: Growth inhibition of human ACHN cells after 48 hrs by SRB assay; assay type: functional
[11] = system: HCT-15; test: Growth inhibition of human HCT15 cells after 48 hrs by SRB assay; assay type: functional; conditions: HCT-15, 48 h
[12] = system: PC-3; test: Growth of human PC3 cells at 10 uM after 48 hrs by SRB assay; conditions: PC-3, 48 h
[13] = system: MDA-MB-231; test: Growth inhibition of human MDA-MB-231 cells after 48 hrs by SRB assay; assay type: functional; conditions: MDA-MB-231, 48 h
[14] = system: NCI-H23; test: Growth inhibition of human NCI-H23 cells at 0.1 uM after 48 hrs by SRB assay; values are per cent of control; conditions: NCI-H23, 48 h
[15] = system: HCT-15; test: Growth inhibition of human HCT15 cells at 0.1 uM after 48 hrs by SRB assay; values are per cent of control; conditions: HCT-15, 48 h
[16] = system: PC-3; test: Growth inhibition of human PC3 cells at 1 uM after 48 hrs by SRB assay; values are per cent of control; conditions: PC-3, 48 h
[17] = system: NUGC-3; test: Growth of human NUGC3 cells at 1 uM after 48 hrs by SRB assay; conditions: NUGC-3, 48 h
[18] = target: Rho-related GTP-binding protein RhoB (Homo sapiens) (UniProt P62745); test: Transactivation of RhoB (unknown origin) transfected in human HeLa cells at 5 uM measured over 10 secs by dual luciferase reporter gene assay; assay type: cell-based
[19] = system: MDA-MB-231; test: Growth of human MDA-MB-231 cells at 1 uM after 48 hrs by SRB assay; conditions: MDA-MB-231, 48 h
[20] = system: MDA-MB-231; test: Growth of human MDA-MB-231 cells at 0.1 uM after 48 hrs by SRB assay; conditions: MDA-MB-231, 48 h
[21] = system: PC-3; test: Growth inhibition of human PC3 cells at 3 uM after 48 hrs by SRB assay; values are per cent of control; conditions: PC-3, 48 h
[22] = system: NCI-H23; test: Growth inhibition of human NCI-H23 cells at 1 uM after 48 hrs by SRB assay; values are per cent of control; conditions: NCI-H23, 48 h
[23] = system: HCT-15; test: Growth inhibition of human HCT15 cells at 1 uM after 48 hrs by SRB assay; values are per cent of control; conditions: HCT-15, 48 h
[24] = system: NCI-H23; test: Growth of human NCI-H23 cells at 0.3 uM after 48 hrs by SRB assay; conditions: NCI-H23, 48 h
[25] = system: ACHN; test: Growth inhibition of human ACHN cells at 1 uM after 48 hrs by SRB assay; values are per cent of control
[26] = system: NUGC-3; test: Growth of human NUGC3 cells at 0.1 uM after 48 hrs by SRB assay; conditions: NUGC-3, 48 h
[27] = system: PC-3; test: Growth inhibition of human PC3 cells at 0.1 uM after 48 hrs by SRB assay; values are per cent of control; conditions: PC-3, 48 h
[28] = system: NCI-H23; test: Growth inhibition of human NCI-H23 cells after 48 hrs by SRB assay; assay type: functional; conditions: NCI-H23, 48 h
[29] = system: HCT-15; test: Growth inhibition of human HCT15 cells at 10 uM after 48 hrs by SRB assay; values are per cent of control; conditions: HCT-15, 48 h
[30] = system: MDA-MB-231; test: Growth of human MDA-MB-231 cells at 10 uM after 48 hrs by SRB assay; conditions: MDA-MB-231, 48 h
[31] = system: NUGC-3; test: Growth inhibition of human NUGC3 cells at 3 uM after 48 hrs by SRB assay; values are per cent of control; conditions: NUGC-3, 48 h
[32] = system: NUGC-3; test: Growth inhibition of human NUGC3 cells after 48 hrs by SRB assay; assay type: functional; conditions: NUGC-3, 48 h
[33] = system: MDA-MB-231; test: Growth of human MDA-MB-231 cells at 3 uM after 48 hrs by SRB assay; values are per cent of control; conditions: MDA-MB-231, 48 h
[34] = system: PC-3; test: Growth inhibition of human PC3 cells at 0.3 uM after 48 hrs by SRB assay; values are per cent of control; conditions: PC-3, 48 h
[35] = system: ACHN; test: Growth of human ACHN cells at 10 uM after 48 hrs by SRB assay
[36] = system: NCI-H23; test: Growth inhibition of human NCI-H23 cells at 3 uM after 48 hrs by SRB assay; values are per cent of control; conditions: NCI-H23, 48 h
[37] = system: NUGC-3; test: Growth inhibition of human NUGC3 cells at 10 uM after 48 hrs by SRB assay; values are per cent of control; conditions: NUGC-3, 48 h

Rho-related GTP-binding protein RhoB (Homo sapiens), sequence (P62745 whole entry): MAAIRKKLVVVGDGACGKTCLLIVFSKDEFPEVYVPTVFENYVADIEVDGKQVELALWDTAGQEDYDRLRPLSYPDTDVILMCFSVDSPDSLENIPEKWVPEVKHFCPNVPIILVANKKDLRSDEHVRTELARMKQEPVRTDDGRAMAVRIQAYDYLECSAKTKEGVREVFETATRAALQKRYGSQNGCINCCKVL

Structure (SMILES) | growth, % of control at 0.3 µM [1] | growth, % of control at 0.3 µM [2] | growth, % of control at 0.3 µM [3] | growth, % of control at 3 µM [4] | growth, % of control at 0.1 µM [5] | growth, % of control at 3 µM [6] | GI50 [7] | growth, % of control at 10 µM [8] | growth, % of control at 0.3 µM [9] | GI50 [10] | GI50 [11] | growth, % of control at 10 µM [12] | GI50 [13] | growth, % of control at 0.1 µM [14] | growth, % of control at 0.1 µM [15] | growth, % of control at 1 µM [16] | growth, % of control at 1 µM [17] | Activity [18] | growth, % of control at 1 µM [19] | growth, % of control at 0.1 µM [20] | also measured
CCCCCCCCCCCCCCCCS(=O)(=O)NCCC[N+](C)(C)C | 93% | 93.6% | 119% | 80.3% | 117% | 22.4% | 580 nM | -23.1% | 108% | 1890 nM | 860 nM | -32.7% | 1390 nM | 86.7% | 96% | 64.6% | 60.2% | Active | 87% | 103% | growth, % of control at 3 µM [21]: -1%; growth, % of control at 1 µM [22]: 88.6%; growth, % of control at 1 µM [23]: 73.6%; growth, % of control at 0.3 µM [24]: 93.7%; growth, % of control at 1 µM [25]: 112%; growth, % of control at 0.1 µM [26]: 103%; growth, % of control at 0.1 µM [27]: 100%; GI50 [28]: 1560 nM; growth, % of control at 10 µM [29]: 1.7%; growth, % of control at 10 µM [30]: 12.9%; growth, % of control at 3 µM [31]: -5.5%; GI50 [32]: 560 nM; growth, % of control at 3 µM [33]: 41%; growth, % of control at 0.3 µM [34]: 102%; growth, % of control at 10 µM [35]: -7.7%; growth, % of control at 3 µM [36]: 47.1%; growth, % of control at 10 µM [37]: -37.7%
CCCCCCCCCCCCCCS(=O)(=O)N(C)CC[N+](C)(C)C | 97.5% | 84.5% | 100% | 47.2% | 107% | 26.9% | 470 nM | 23.7% | 98.2% | 1400 nM | 750 nM | -14.3% | 920 nM | 94.5% | 95.7% | 45.1% | 34.4% | Active | 66.3% | 99.1% | growth, % of control at 3 µM [21]: 11.4%; growth, % of control at 1 µM [22]: 86.3%; growth, % of control at 1 µM [23]: 55.6%; growth, % of control at 0.3 µM [24]: 100%; growth, % of control at 1 µM [25]: 71.6%; growth, % of control at 0.1 µM [26]: 92.4%; growth, % of control at 0.1 µM [27]: 92%; GI50 [28]: 2040 nM; growth, % of control at 10 µM [29]: 20.2%; growth, % of control at 10 µM [30]: 7.8%; growth, % of control at 3 µM [31]: 18.4%; GI50 [32]: 390 nM; growth, % of control at 3 µM [33]: 35.3%; growth, % of control at 0.3 µM [34]: 93.6%; growth, % of control at 10 µM [35]: 21.3%; growth, % of control at 3 µM [36]: 59.1%; growth, % of control at 10 µM [37]: 9%
CCCCCCCCCCCCCCCCS(=O)(=O)N(C)CC[N+](C)(CC)CC | 100% | 88.1% | 89.5% | 48.7% | 90.4% | 42.7% | 560 nM | 0.4% | 96.2% | 1290 nM | 1490 nM | -21.6% | 1120 nM | 90.7% | 98.5% | 50.7% | 30.2% | Active | 68.4% | 98.5% | growth, % of control at 3 µM [21]: 8.6%; growth, % of control at 1 µM [22]: 51.3%; growth, % of control at 1 µM [23]: 76.2%; growth, % of control at 0.3 µM [24]: 90.5%; growth, % of control at 1 µM [25]: 72.7%; growth, % of control at 0.1 µM [26]: 93.6%; growth, % of control at 0.1 µM [27]: 100%; GI50 [28]: 620 nM; growth, % of control at 10 µM [29]: 21.1%; growth, % of control at 10 µM [30]: 15.6%; growth, % of control at 3 µM [31]: 9.2%; GI50 [32]: 390 nM; growth, % of control at 3 µM [33]: 35.7%; growth, % of control at 0.3 µM [34]: 92.8%; growth, % of control at 10 µM [35]: 5%; growth, % of control at 3 µM [36]: 22.5%; growth, % of control at 10 µM [37]: 1.2%
